From US5688824A, “Use of leflunomide to prevent or control xenograft rejection” (priority 1996, dated 1997)
Where two headings read alike, the source gives them in different places.

How the values were obtained:
[1] = tested on: human peripheral blood lymphocytes; assay: one-way mixed lymphocyte reaction (3H-thymidine uptake); type: cell-based
Procedure: The effect of varying concentrations of leflunomide product (A771726, Hoechst AG Werk Albert, Wiesbaden, Germany) in combination with varying concentrations of rapamycin (Wyeth-Ayerst Research, Rouses Point, N.Y.) was evaluated in a one-way mixed lymphocyte reaction (MLR) performed according to Kahan et al., Transplantation, 51:232 (1991). Briefly, human peripheral blood lymphocytes (2×10^5 per well) were incubated with an equal number of gamma-irradiated, allogeneic peripheral blood lymphocytes for 5 days in the presence of varying concentrations of leflunomide and rapamycin. The lymphocytes were then incubated for 16 to 20 hours with 1 μCi/well of ^3 H-thymidine. The amount of ^3 H-thymidine uptake was measured, and the percent inhibition of proliferation by each drug or drug combination was calculated. Data from two trials appear below in Tables 4 and 5.

cGvH disease or SLE = details: mouse, U.S. Pat. No. 4,965,276; cited from earlier work
murine B-cell = details: in vitro; cited from earlier work
murine T-cell = details: in vitro; cited from earlier work
[2] = tested on: heterotopic small intestinal transplantation; details: cited from earlier work
[3] = tested on: rejection of concordant hamster to rat cardiac xenografts; details: earlier work, cited from earlier work
renal allograft = details: BN-LEW renal transplant; cited from earlier work
SLE in MRL/lpr mice = details: at the end of 10 weeks, mice with elevated urine protein; cited from earlier work
[4] = humans; cited from earlier work

## C/C(O)=C(\C#N)C(=O)Nc1ccc(C(F)(F)F)cc1 [A771726, N-(4-trifluoromethylphenyl)-2-cyano-3-hydroxycrotonamide]
[1]; 12.50 μM Lef, 0.00 nM Rapa, Table 4
  % Inhibition of Lymphocyte Proliferation: 15.19%
[1]; 12.50 μM Lef, 0.00 nM Rapa, Table 5
  % Inhibition of Lymphocyte Proliferation: 21.84%
[1]; 25.00 μM Lef, 0.00 nM Rapa, Table 4
  % Inhibition of Lymphocyte Proliferation: 37.35%
[1]; 25.00 μM Lef, 0.00 nM Rapa, Table 5
  % Inhibition of Lymphocyte Proliferation: 38.40%
[1]; 50.00 μM Lef, 0.00 nM Rapa, Table 4
  % Inhibition of Lymphocyte Proliferation: 56.71%
[1]; 50.00 μM Lef, 0.00 nM Rapa, Table 5
  % Inhibition of Lymphocyte Proliferation: 68.63%
cGvH disease or SLE
  glomerulonephritis, anti-dsDNA titer, GvH index, T-lymphocyte proliferative ability: prevented development of glomerulonephritis, reduced anti-dsDNA titer, decreased the GvH index (a measure of relative spleen enlargement), and improved the diminished proliferative ability of T-lymphocytes
  inhibition of development of cGvH disease or SLE: effective in inhibiting the development of cGvH disease or SLE
Murine B-cell
  inhibition of murine B-cell proliferation: more potent inhibitor of B-cell proliferation
Murine T-cell
  inhibition of murine T-cell proliferation: inhibit murine B-cell and T-cell proliferation
[2]; 5 mg/kg/day by gavage for 7 days
  survival of recipients: 15.0 ± 2.1 days
[2]; 5 mg/kg/day by gavage for 14 days
  survival of recipients: 21.2 ± 1.6 days
[2]; 5 mg/kg/day by gavage for 28 days
  survival of recipients: 33.8 ± 2.4 days

## O=P1(N(CCCl)CCCl)NCCCO1 (stereo not shown) [Cytoxan]
[3]; Cytoxan
  control of xenograft rejection: can completely control rejection of xenografts
  toxicity of required dose: lethally toxic range

## C=CC[C@@H]1/C=C(\C)C[C@H](C)C[C@H](OC)[C@H]2O[C@@](O)(C(=O)C(=O)N3CCCC[C@H]3C(=O)O[C@H](/C(C)=C/[C@@H]3CC[C@@H](O)[C@H](OC)C3)[C@H](C)[C@@H](O)CC1=O)[C@H](C)C[C@@H]2OC [FK-506]
[3]; hamster to rat cardiac xenograft
  effect on xenograft survival: limited effect on xenograft survival even at lethal doses

## Cn1cnc([N+](=O)[O-])c1Sc1ncnc2nc[nH]c12 [azathioprine]
Renal allograft
  protection: neither azathioprine nor prednisolone offered any protection

## C[C@]12C=CC(=O)C=C1CC[C@@H]1[C@@H]2[C@@H](O)C[C@@]2(C)[C@H]1CC[C@]2(O)C(=O)CO [prednisolone]
SLE in MRL/lpr mice
  animals still alive: 40%
Renal allograft
  protection: neither azathioprine nor prednisolone offered any protection

## CO[C@H]1C[C@@H]2CC[C@@H](C)[C@@](O)(O2)C(=O)C(=O)N2CCCC[C@H]2C(=O)O[C@H]([C@H](C)C[C@@H]2CC[C@@H](O)[C@H](OC)C2)CC(=O)[C@H](C)/C=C(\C)[C@@H](O)[C@@H](OC)C(=O)[C@H](C)C[C@H](C)/C=C/C=C/C=C/1C [rapamycin]
[1]; 0.010 nM Rapa, 0.00 μM Lef, Table 4
  % Inhibition of Lymphocyte Proliferation: 27.12%
[1]; 0.010 nM Rapa, 0.00 μM Lef, Table 5
  % Inhibition of Lymphocyte Proliferation: 4.78%
[1]; 0.050 nM Rapa, 0.00 μM Lef, Table 4
  % Inhibition of Lymphocyte Proliferation: 38.78%
[1]; 0.050 nM Rapa, 0.00 μM Lef, Table 5
  % Inhibition of Lymphocyte Proliferation: 37.75%
[1]; 0.100 nM Rapa, 0.00 μM Lef, Table 4
  % Inhibition of Lymphocyte Proliferation: 57.42%
[1]; 0.100 nM Rapa, 0.00 μM Lef, Table 5
  % Inhibition of Lymphocyte Proliferation: 51.71%
[1]; 1.00 nM Rapa, 0.00 μM Lef, Table 4
  % Inhibition of Lymphocyte Proliferation: 89.25%
[1]; 1.00 nM Rapa, 0.00 μM Lef, Table 5
  % Inhibition of Lymphocyte Proliferation: 80.83%

## Nc1ccc(C(F)(F)F)cc1 [trifluoromethyl aniline]
[4]
  side effect of accumulation of the metabolite: Heinz-body hemolytic anemia
